We go through 32 compounds from patent US20230234943A1, “TREX1 INHIBITORS AND USES THEREOF” (Tempest Therapeutics, Inc., priority 2020, published 2023).

A value given as a limit tells only on which side of the number the result lay.

The target of this assay is T1, Human TREX1 enzyme (amino acids 1-242) (Homo sapiens, UniProt Q9NSU2).
T1 construct: Human TREX1 enzyme (amino acids 1-242)
T1 sequence (Q9NSU2 1-242): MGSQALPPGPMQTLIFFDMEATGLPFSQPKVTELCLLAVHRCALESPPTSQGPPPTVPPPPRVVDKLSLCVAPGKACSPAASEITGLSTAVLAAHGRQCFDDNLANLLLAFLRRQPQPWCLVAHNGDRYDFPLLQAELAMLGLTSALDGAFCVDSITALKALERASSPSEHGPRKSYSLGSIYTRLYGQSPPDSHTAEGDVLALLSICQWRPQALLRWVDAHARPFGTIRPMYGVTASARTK
Put plainly: Human TREX1 enzymatic assay with dsDNA native oligonucleotide (Picogreen fluorescence). It counts as biochemical. Conditions: 2 mM dithiothreitol in assay buffer; 50 nM dsDNA oligonucleotide; 30 min preincubation at 25° C.; read-out: TREX1/Human + DTT IC50 AVG. As to the method:
Example A. Human TREX1 Enzymatic Assay with dsDNA Native Oligonucleotide
Human TREX1 enzyme (amino acids 1-242) was diluted in assay buffer (20 mM Tris pH 7.7, 5 mM MgCl2, 0.01% human serum albumin, 0.01% Brij™-35, 2 mM dithiothreitol) to a final concentration of 0.8 nM to 0.16 nM and added to a 96-well low-binding polypropylene plate. Test compounds were diluted in DMSO to 50× concentration (final DMSO concentration in reaction mixture of 2%) and added to the wells with a concentration ranging from 300 μM to 13 nM or 30 μM to 1.5 nM. The reaction mixtures were incubated for 30 minutes at 25° C. and a solution of annealed dsDNA oligonucleotide (5′-[…]-3′ and Comp: 5′-[…]-3′) was added to a final concentration of 50 nM. The reaction mixtures were incubated at 25° C. for 5-15 minutes and subsequently quenched by transferring part of the assay reaction to a solution of 100 mM ethylenediaminetetraacetic acid and 1:100 Picogreen™ (final concentration of […]) in a black plate with an opaque bottom. The fluorescence ([…]) was measured using a Molecular Devices SpectraMax plate reader. Wells containing oligonucleotide but no TREX1 enzyme were used as negative controls. Wells containing oligonucleotide, TREX1 enzyme, and DMSO were used as positive controls.

Take `COc1cc(-c2nc3ccc(-c4ccc(F)cn4)cc3n2C2(C)COC2)c(F)c(O)c1O` [Example 269, 3-fluoro-4-(6-(5-fluoropyridin-2-yl)-1-(3-methyloxetan-3-yl)-1H-benzo[d]imidazol-2-yl)-6-methoxybenzene-1,2-diol]: the IC50 is no more than 0.1 µM.

On to `COc1cc(-c2nc3cc(N4CCN(C)CC4=O)ccc3n2C2(C)COC2)c(F)c(O)c1O` [Example 273, 1-(2-(2-fluoro-3,4-dihydroxy-5-methoxyphenyl)-1-(3-methyloxetan-3-yl)-1H-benzo[d]imidazol-5-yl)-4-methylpiperazin-2-one], for which the IC50 was in the range of 0.1 to 1 µM. As for `COc1cc(-c2nc3ccncc3[nH]2)c(C)c(O)c1O` [Example 78, 4-(3H-imidazo[4,5-c]pyridin-2-yl)-6-methoxy-3-methylbenzene-1,2-diol], the figure is 10 to 100 µM. As for `COc1cc(-c2nc3ccc(C(=O)NC4CCN(C)C4)cc3n2C2(C)COC2)c(F)c(O)c1O` (centres unmarked) [Example 257, 2-(2-fluoro-3,4-dihydroxy-5-methoxyphenyl)-1-(3-methyloxetan-3-yl)-N-(1-methylpyrrolidin-3-yl)-1H-benzo[d]imidazole-6-carboxamide], the figure is 0.1 to 1 µM.

`CC(C)COc1cc(-c2nc3cccnc3n2CC(C)C)cc(O)c1O` [Example 40, 3-isobutoxy-5-(3-isobutyl-3H-imidazo[4,5-b]pyridin-2-yl)benzene-1,2-diol]: the IC50 was greater than 100 µM. Consider `COc1c(O)c(O)c(C)c(-c2nc3ccccc3n2C2CCC2)c1F` [Example 323, 4-(1-cyclobutyl-1H-benzo[d]imidazol-2-yl)-5-fluoro-6-methoxy-3-methylbenzene-1,2-diol], for which the IC50 fell in the range of 1 to 10 µM. For `COc1cc(-c2nc3cc(N4CCOCC4)ccc3[nH]2)cc(O)c1O` [Example 25, 3-methoxy-5-(5-morpholino-1H-benzo[d]imidazol-2-yl)benzene-1,2-diol] the value was greater than 100 µM. For `COc1cc(-c2nc3ccccc3n2C)cc(O)c1O` [Example 10, 3-methoxy-5-(1-methyl-1H-benzo[d]imidazol-2-yl)benzene-1,2-diol] the value was greater than 100 µM; for `COc1cc(-c2nc3c(Cl)c(Cl)ccc3[nH]2)c(F)c(O)c1O` [Example 202, 4-(6,7-dichloro-1H/benzo[d]imidazol-2-yl)-3-fluoro-6-methoxybenzene-1,2-diol], greater than 100 µM; for `COc1cc(-c2nc3cc(N4CCN(c5ccccn5)CC4)ccc3[nH]2)cc(O)c1O` [Example 73, 3-methoxy-5-(5-(4-(pyridin-2-yl)piperazin-1-yl)-1H-benzo[d]imidazol-2-yl)benzene-1,2-diol], greater than 100 µM. For `COc1cc(-c2nc3ccc(N4CCN(C)CC4)cc3n2C)cc(O)c1O` [Example 38, 3-methoxy-5-(1-methyl-6-(4-methylpiperazin-1-yl)-1H-benzo[d]imidazol-2-yl)benzene-1,2-diol] the value was greater than 100 µM. With `COc1cc(-c2nc3cc(NC(=O)c4ccccn4)ccc3n2C2(C)COC2)c(F)c(O)c1O` [Example 203, N-[2-(2-fluoro-3,4-dihydroxy-5-methoxyphenyl)-1-(3-methyloxetan-3-yl)-1H-1,3-benzodiazol-5-yl]pyridine-2-carboxamide], the IC50 is no more than 0.1 µM. Regarding `COc1cc(-c2nc3cc(N4CCOCC4)ncc3[nH]2)cc(O)c1O` [Example 55, 3-methoxy-5-(6-morpholino-3H-imidazo[4,5-c]pyridin-2-yl)benzene-1,2-diol], the IC50 is greater than 100 µM.

For the compound `COc1cc(-c2cc3ccccc3n2C2(C)COC2)c(C)c(O)c1O` [Example 220], the IC50 lay within 0.1 to 1 µM. As for `COc1cc(-c2nc3cc(N4CCN(C(=O)c5ccccc5Cl)CC4)ccc3[nH]2)cc(O)c1O` [Example 111, (2-chlorophenyl)(4-(2-(3,4-dihydroxy-5-methoxyphenyl)-1H-benzo[d]imidazol-5-yl)piperazin-1-yl)methanone], the figure is 1 to 10 µM. As for `COc1cc(-c2nc3cc(N4CCN(C(=O)c5ccccc5C(F)(F)F)CC4)ccc3[nH]2)cc(O)c1O` [Example 104, (4-(2-(3,4-dihydroxy-5-methoxyphenyl)-1H-benzo[d]imidazol-5-yl)piperazin-1-yl)(2-(trifluoromethyl)phenyl)methanone], the figure is greater than 100 µM. On to `COc1cc(-c2nc3cc(N4CCN(C(=O)c5ccc(C(C)(C)C)cc5)CC4)ccc3[nH]2)cc(O)c1O` [Example 126, (4-(tert-butyl)phenyl)(4-(2-(3,4-dihydroxy-5-methoxyphenyl)-1H-benzo[d]imidazol-5-yl)piperazin-1-yl)methanone], for which the IC50 is greater than 100 µM. In the case of `COc1cc(-c2nc3cc(N4CCC4)ccc3[nH]2)cc(O)c1O` [Example 4, 5-(5-(azetidin-1-yl)-1H-benzo[d]imidazol-2-yl)-3-methoxybenzene-1,2-diol], the IC50 fell in the range of 1 to 10 µM. For `COc1cc(-c2nc3cc(N4CCC4)ccc3[nH]2)c(F)c(O)c1O` [Example 157, 4-(5-(azetidin-1-yl)-1H-benzo[d]imidazol-2-yl)-3-fluoro-6-methoxybenzene-1,2-diol] the value was 1 to 10 µM; for `CCCC(=O)Nc1ccc2c(c1)nc(-c1cc(OC)c(O)c(O)c1F)n2C1(C)COC1` [Example 215, N-(2-(2-fluoro-3,4-dihydroxy-5-methoxyphenyl)-1-(3-methyloxetan-3-yl)-1H-benzo[d]imidazol-5-yl)butyramide], no more than 0.1 µM; for `C=CCCC(=O)N1CCN(c2ccc3c(c2)nc(-c2cc(O)c(O)c(OC)c2)n3C(=O)CCC=C)CC1` [Example 34, 1-(4-(2-(3,4-dihydroxy-5-methoxyphenyl)-1-(pent-4-enoyl)-1H-benzo[d]imidazol-5-yl)piperazin-1-yl)pent-4-en-1-one], 10 to 100 µM. For `COc1cc(-c2nc3ccccc3n2C2(C)CCC2)c(C)c(O)c1O` [Example 225, 6-methoxy-3-methyl-4-(1-(1-methylcyclobutyl)-1H-benzo[d]imidazol-2-yl)benzene-1,2-diol] the value was 1 to 10 µM; for `O=C(O)c1ccc(-c2nc3cc(N4CCC4)ccc3[nH]2)cc1O` [Example 114, 4-(5-(azetidin-1-yl)-1H-benzo[d]imidazol-2-yl)-2-hydroxybenzoic acid], 10 to 100 µM. For `COc1cc(-c2nc3cc(N4CCN(C(=O)c5ccc(C)cc5)CC4)ccc3[nH]2)cc(O)c1O` [Example 98, (4-(2-(3,4-dihydroxy-5-methoxyphenyl)-1H-benzo[d]imidazol-5-yl)piperazin-1-yl)(p-tolyl)methanone] the value was 1 to 10 µM.

As for `COc1cc(-c2nc3ccc(C(=O)NC4CCN(C)CC4)cc3n2C2(C)COC2)c(F)c(O)c1O` [Example 260, 2-(2-fluoro-3,4-dihydroxy-5-methoxyphenyl)-1-(3-methyloxetan-3-yl)-N-(1-methylpiperidin-4-yl)-1H-1,3-benzodiazole-6-carboxamide], the IC50 is 0.1 to 1 µM. As for `COc1cc(-c2nc3ccc(Nc4ccccc4)cc3n2C2(C)COC2)c(F)c(O)c1O` [Example 318, 3-fluoro-6-methoxy-4-(1-(3-methyloxetan-3-yl)-6-(phenylamino)-1H-benzo[d]imidazol-2-yl)benzene-1,2-diol], the figure is 0.1 to 1 µM. On to `COc1cc(-c2nc3cc(N4CCCCC4)ccc3[nH]2)cc(O)c1O` [Example 48, 3-methoxy-5-(5-(piperidin-1-yl)-1H-benzo[d]imidazol-2-yl)benzene-1,2-diol], for which the IC50 was greater than 100 µM.

`O=C(O)c1ccc(-c2nc3cc(N4CCN(c5cccnc5)CC4)ccc3[nH]2)cc1O` [Example 119, 2-hydroxy-4-(5-(4-(pyridin-3-yl)piperazin-1-yl)-1H-benzo[d]imidazol-2-yl)benzoic acid]: the IC50 was in the range of 10 to 100 µM. For `COc1cc(-c2nc3ncccc3n2C2COC2)cc(O)c1O` [Example 36, 3-methoxy-5-(1-(oxetan-3-yl)-1H-imidazo[4,5-b]pyridin-2-yl)benzene-1,2-diol] the value was greater than 100 µM; for `COc1cc(-c2nc3ccccc3n2C23CC(C2)C3)c(F)c(O)c1O` [Example 328, 4-(1-(bicyclo[1.1.1]pentan-1-yl)-1H-benzo[d]imidazol-2-yl)-3-fluoro-6-methoxybenzene-1,2-diol], no more than 0.1 µM. For the compound `COc1cc(-c2nc3ccc(C(O)C(F)(F)F)cc3n2C2(C)COC2)c(F)c(O)c1O` (centres unmarked) [Example 280, 3-fluoro-6-methoxy-4-(1-(3-methyloxetan-3-yl)-6-(2,2,2-trifluoro-1-hydroxyethyl)-1H-benzo[d]imidazol-2-yl)benzene-1,2-diol], the IC50 is 0.1 to 1 µM.

With `COc1cc(-c2nc3ccc(N4CCC4)cc3n2C2COC2)c(F)c(O)c1O` [Example 288, 4-(6-(azetidin-1-yl)-1-(oxetan-3-yl)-1H-benzo[d]imidazol-2-yl)-3-fluoro-6-methoxybenzene-1,2-diol], the IC50 was 1 to 10 µM.
